Experiments:
[1] = Liver transaminase (ALT) levels in serum (Example 14); assay type: in vivo, mice
Method: (§1) Six week old male Balb/c mice (Jackson Laboratory, Bar Harbor, Me.) were administered a single intraperitoneal (i.p) injection with 4′-CH2—O-2′ BNA containing oligomers (392745 and 392063) and 6(S)-4′-CH(CH3)—O-2′ BNA containing oligomers (392749 and 411847) at a does of 3.2, 10, 32, 66 and 100 mg/kg. Oligomers 392063 and 411847 contain LNA nucleosides with methylated pyrimidines, and oligomers 392745 and 392749 contain LNA nucleosides with non-methylated pyrimidines in the wings. All intemucleoside linkages are phosphorothioates, nucleosides not followed by a subscript are βD-2′-deoxyribonucleosides, nucleosides followed by a subscript 1 are 4′-CH2—O-2′ modified bicyclic nucleosides, nucleosides followed by a subscript S are 6(S)-4′-CH(CH3)—O-2′ modified bicyclic nucleosides wherein S indicates the configuration at the 6 carbon atom and ^MeC indicates a 5′-methyl cytosine nucleoside.
Liver transaminase levels, alanine aminotranferease (ALT) and aspartate aminotransferase (AST), in serum were also measured relative to saline injected mice. Increases in the transaminase levels can indicate hepatotoxicity. The approximate liver transaminase levels are listed below.

PTEN mRNA [2] = assay: PTEN mRNA levels in liver, real-time PCR (Example 14 in vivo study); parameters: species or system mice; conditions: for PTEN mRNA levels (% inhibition): liver, 72 h; for ED50: estimated, Graphpad Prism, dose at which 50% mRNA reduction is observed
Method: as §1
(§2) Each dose group consisted of four animals. The mice were sacrificed 72 hours following the final administration to determine the PTEN mRNA levels in liver using real-time PCR and RIBOGREEN® RNA quantification reagent (Molecular Probes, Inc. Eugene, Oreg.) according to standard protocols. PTEN mRNA levels were determined relative to total RNA (using Ribogreen), prior to normalization to saline-treated control. Results are listed below as the average % inhibition of mRNA expression for each treatment group, normalized to saline-injected control.
Estimated ED50 concentrations for each oligomers were calculated using Graphpad Prism. ED50 is the dose at which 50% mRNA reducation is observed.

complementary RNA = assay: Tm of modified oligomers with complementary RNA; assay type: binding; conditions: 100 mM phosphate buffer, 0.1 mM EDTA, pH 7, 260 nm, 4 μM oligomer and 4 μM complementary RNA
Method: as §2, with “saline-injected control. Resulting dose-response curves were used to determine the IC50. Tm's were assessed in 100 mM phosphate buffer, 0.1 mM EDTA, pH 7, at 260 nm using 4 μM modified oligomers and 4 μM complementary RNA.” for “saline-injected control.”

PTEN mRNA [3] = assay: PTEN mRNA levels in liver, real-time PCR (Example 13 in vivo study); conditions: Balb/c mice, 72 h, normalized to saline control
Method: (§3) In accordance with the present invention, oligomeric compounds were synthesized and tested for their ability to reduce PTEN expression in vivo at doses of 20 and 60 mg/kg. Six week old male Balb/c mice (Jackson Laboratory, Bar Harbor, Me.) were administered a single intraperitoneal (i.p) injection at either 20 or 60 mg/kg of 4′-CH2—O-2′ BNA 2-10-2 gapped oligomers ([…] and 392745). The 4′-CH2—O-2′ BNA gapped oligomer, 392745, contains non-methylated pyrimidine in the wings. The 4′-CH2—O-2′ BNA gapped oligomer, 392063, contains methylated pyrimidine in the wings (i.e. each cytosine residues in the 4′-CH2—O-2′ BNA wings of 392745 are replaced with 5-methylcytosines, while the thymidine residues in the 4′-CH2—O-2′ BNA wings of 392745 are replaced with 5-methyl thymidines). All internucleoside linkages are phosphorothioates, nucleosides not followed by a subscript are βD-2′-deoxyribonucleosides, nucleosides followed by a subscript 1 are 4′-CH2—O-2′ modified bicyclic nucleosides and ^MeC indicates a 5′-methyl cytosine nucleoside.
as §2, with “saline-injected control. Resulting dose-response curves were used to determine the IC50. Tm's were assessed in 100 mM phosphate buffer, 0.1 mM EDTA, pH 7, at 260 nm using 4 μM modified oligomers and 4 μM complementary RNA.” for “saline-injected control.”

[4] = Liver transaminase levels (ALT, AST) in serum (Example 13); assay type: in vivo, mice; conditions: for transaminase levels with respect to saline treated control: 20 mg/kg; for ALT / AST: serum; for ALT: saline = 24; for AST: saline = 68
Method: as §3
Liver transaminase levels, alanine aminotranferease (ALT) and aspartate aminotransferase (AST), in serum were also measured relative to saline injected mice. Increases in the transaminase levels can indicate hepatotoxicity. […] The ALT and AST levels measured for mice treated with 60 mg/kg does of 392745 were decreased about 4.5-fold and 3 fold as compared to 392063 treatment. The approximate liver transaminase levels are listed below.

[5] = Liver, kidney, spleen weights and body weight gain (Example 13); assay type: in vivo, mice; conditions: for Kidney weight / Liver weight / Spleen weight: saline = 1.00; for Body weight gain: saline = 1.05; for liver, kidney, spleen weights or body weight gain compared to saline: normal mice, 20 and 60 mg/kg
Method: as §3
The effects on liver, kidney, spleen weights and body weight gain were also determined.

| Substance | ALT levels ([1]; 3.2 mg/kg, serum, saline = 24) | ALT levels ([1]; 10 mg/kg, serum, saline = 24) | ALT levels ([1]; 32 mg/kg, serum, saline = 24) | ALT levels ([1]; 66 mg/kg, serum, saline = 24) | ALT levels ([1]; 100 mg/kg, serum, saline = 24) | PTEN mRNA levels (% inhibition) (PTEN mRNA [2]; 3.2 mg/kg single i.p.) | PTEN mRNA levels (% inhibition) (PTEN mRNA [2]; 10 mg/kg single i.p.) | PTEN mRNA levels (% inhibition) (PTEN mRNA [2]; 32 mg/kg single i.p.) | PTEN mRNA levels (% inhibition) (PTEN mRNA [2]; 66 mg/kg single i.p.) | PTEN mRNA levels (% inhibition) (PTEN mRNA [2]; 100 mg/kg single i.p.) | ED50 (PTEN mRNA [2]) | Tm (complementary RNA) | % inhibition (PTEN mRNA expression in liver) (PTEN mRNA [3]; 20 mg/kg single i.p.) | % inhibition (PTEN mRNA expression in liver) (PTEN mRNA [3]; 60 mg/kg single i.p.) | transaminase levels with respect to saline treated control [4] | ALT ([4]; 20 mg/kg single i.p.) | AST ([4]; 20 mg/kg single i.p.) | ALT ([4]; 60 mg/kg single i.p.) | AST ([4]; 60 mg/kg single i.p.) | Kidney weight ([5]; 20 mg/kg) | other results |
| --- | --- | --- | --- | --- | --- | --- | --- | --- | --- | --- | --- | --- | --- | --- | --- | --- | --- | --- | --- | --- | --- |
| ^MeC1T1TAGCACTGGC^MeC1T1 [ISIS 392063] | 20 IU/L | 17 IU/L | 20 IU/L | 4292 IU/L | 13811 IU/L | 0% | 68% | 88% | 90% | 91% | 8 mg/kg | 60.5 °C | 86% | 92% | not elevated to a level indicative of hepatotoxicity | 28 IU/L | 56 IU/L | 489 IU/L | 598 IU/L | 1.02 | ALT levels ([1]; higher doses (66 mg/kg and 100 mg/kg)): substantially increased; ALT and AST levels ([4]; 60 mg/kg): substantially increased; Liver weight ([5]; 20 mg/kg): 1.22; Spleen weight ([5]; 20 mg/kg): 0.99; Body weight gain ([5]; 20 mg/kg): 1.05; Kidney weight ([5]; 60 mg/kg): 1.00; Liver weight ([5]; 60 mg/kg): 1.29; Spleen weight ([5]; 60 mg/kg): 1.11; Body weight gain ([5]; 60 mg/kg): 0.99; liver, kidney, spleen weights or body weight gain compared to saline [5]: did not substantially alter |
| C1U1TAGCACTGGCC1U1 [ISIS 392745] | 30 IU/L | 20 IU/L | 13 IU/L | 59 IU/L | 3842 IU/L | 0% | 58% | 90% | 90% | 93% | 9 mg/kg | 58.6 °C | 89% | 92% | not elevated to a level indicative of hepatotoxicity | 29 IU/L | 81 IU/L | 108 IU/L | 202 IU/L | 1.02 | ALT level decrease as compared to 392063 treatment ([1]; 100 mg/kg): about 3.5 fold; ALT levels with respect to saline treated control ([1]; lower doses (3.2, 10, 32 and 66 mg/kg)): not elevated to a level indicative of hepatotoxicity; ALT level decrease as compared to 392063 treatment ([4]; 60 mg/kg): about 4.5 fold; AST level decrease as compared to 392063 treatment ([4]; 60 mg/kg): ~3 fold; Liver weight ([5]; 20 mg/kg): 1.22; Spleen weight ([5]; 20 mg/kg): 1.14; Body weight gain ([5]; 20 mg/kg): 1.06; Kidney weight ([5]; 60 mg/kg): 1.02; Liver weight ([5]; 60 mg/kg): 1.25; Spleen weight ([5]; 60 mg/kg): 1.12; Body weight gain ([5]; 60 mg/kg): 1.01; liver, kidney, spleen weights or body weight gain compared to saline [5]: did not substantially alter |

— US8846639B2, “Oligomeric compounds comprising bicyclic nucleosides and having reduced toxicity” (Isis Pharmaceutical, Inc., priority 2008, dated 2014)
